Holding throughout (type): cell-based
Assay [1] concerns neonatal rat cardiac myocytes. As to the kind of experiment: Cardiac myocyte contraction rate measurement. As to conditions: 40 minutes after PMA addition, n=4, p<0.05; PMA alone versus with N-ΨεRACK.
A further assay concerns rat cardiac myocytes. As to the kind of experiment: Simulated ischemia, cell damage by trypan blue exclusion. The settings on record: for effect on ΨεRACK-induced protection from ischemic damage: in combination with ΨεRACK; for effect on response to ischemia: peptide alone before simulated ischemia. The procedure: Cardiac myocytes were isolated from adult male rats as previously described (Chen et al., Proc. Natl. Acad. Sci., 96(22):12784 (1999)). Myocytes in incubation buffer were treated with a peptide or combination of peptides, prepared as described in Example 1, for 15 minutes. Myocytes were then pelleted at 1000 rpm for 1 minute in a degassed incubation buffer saturated with nitrogen and incubated at 37° C. for 3 hours to simulate ischemia. Cell damage was assessed after the 3 hours by trypan blue exclusion and percent cell with damage was determined as previously described (Chen et al., Proc. Natl. Acad. Sci., 96(22):12784 (1999)).

Assay [2] concerns neonatal rat cardiac myocytes. As to the kind of experiment: Cardiac myocyte contraction rate measurement. The settings on record: for effect on the decrease in contraction rate induced by PMA: 1 nM or 5 nM PMA about 20 minutes after peptide; for agonistic effect on contraction rate of cardiac myocytes: prior to PMA; for effect on ΨεRACK effect on contraction (negative chronotropy): PMA and ΨεRACK, prior application of the inhibitor. The protocol:
Primary cardiac myocyte cell cultures (90-95% pure) were prepared from newborn rats as previously described (Gray, M. O., et al., J. Biol. Chem. 272:30945-30951, (1997); Disatnik, M.-H., et al., Exp. Cell Res. 210:287-297, (1994)). Peptides (100 nM-1 μM applied concentration) were introduced into cells by transient permeabilization (Johnson, J. A., et al., Circ. Res. 79:1086-1099, (1996)) with sham permeabilization as control, or as carrier-peptide conjugates (30 nM-1 μM) (Derossi, D. et al., surpa (1994); Derossi, D. et al., surpa (1996); Théodore, L., et al., surpa (1995)) with a carrier-carrier dimer as a control.
Cells were treated for 10-20 minutes in the absence or presence of peptide followed by an additional incubation with or without 1 nM phorbol 12-myristate 13-acetate (PMA) for 10 or 20 minutes. Alternatively, cells were incubated for 10 minutes with 100 nM PMA (positive control) or in the absence of PMA.
Measurements of cardiac myocyte contraction rate were carried out essentially as previously described (Johnson, J. A., et al., J. Biol. Chem. 271:24962-24966, (1996). In brief, cardiomyocytes cultured on 35 mm plates were placed in a temperature-regulation apparatus at 37° C. (Medical Systems Corp.) and positioned on the stage of an inverted microscope (Carl Zeiss Inc.). The contraction rates of four cells in one microscopic field were determined every 2 minutes for 15 seconds each. The basal contraction rate (˜300 beats/minute) was stable over many hours.
Peptide SEQ ID Nos:3, 55 and 79 were introduced into cardiac myocyte cell cultures prepared from newborn rats by transient permeabilization, with sham permeabilization as control, or as carrier-peptide conjugates with a carrier-carrier dimer as control. The cells were treated for 10-20 minutes in the absence or presence of peptide followed by an additional incubation with or without phorbol 12-myristate 13-acetate (PMA) for 10 or 20 minutes. Alternatively, cells were incubated for 10 minutes with 100 nM PMA (positive control) or in the absence of PMA. The effect of the peptide and/or PMA was determined by measuring the contraction rate of the myocytes, as described in Example 1B.

For “HNAPIGYD (A modification of SEQ ID NO3) [N-ΨεRACK, εPKC antagonist peptide derived from ΨεRACK, D substituted by N]”, the “decrease in contraction rate induced by 10 nM PMA” value in assay [1] worked out at 24±5%. Moreover, in the assay on rat cardiac myocytes, the “effect on ΨεRACK-induced protection from ischemic damage” value (shortened to “effect on ΨεRACK-induced protection”) is given as “abolished” and the “effect on response to ischemia” value is recorded as “no effect”. Further, in assay [2], the “effect on the decrease in contraction rate induced by PMA” value is “able to reduce the decrease in contraction rate”. For the same molecule, in assay [2] (cells treated with N-ΨεRACK, then ΨεRACK at 15 minutes and 1 nM PMA at 30 minutes), the “decrease in contraction rate” value is reported as < 10%. Moreover, the “agonistic effect on contraction rate of cardiac myocytes” value in assay [2] (peptide alone) is given as “no agonistic effect”.

For “HDAPIGYD (listed as Homo sapiens) [ΨεRACK, εPKC agonist peptide, εPKC amino acid residues 85-92]”, the “reduction of ischemia-induced cell damage” value with rat cardiac myocytes (peptide 15 minutes before 3 hours simulated ischemia) is reported as 60%. Also, in assay [2], the “effect on the decrease in contraction rate induced by PMA” value is “reduced the decrease in contraction rate”. Further, the “decrease in contraction rate from the basal rate” value in assay [2] (peptide alone, 20 minutes after peptide addition) was found to be 9±2%. Moreover, the “decrease from the basal contraction rate” value in assay [2] (ΨεRACK together with PMA) was 44±6%.

As to “HAAPIGYD (Alternative pseudo-epsilon RACK peptide) [A-ΨεRACK]”, in the assay with rat cardiac myocytes, the “effect on ΨεRACK-induced protection” value is “did not” and the “effect on response to ischemia” value is reported as “no effect”. The “agonistic effect on contraction rate of cardiac myocytes” value in assay [2] (peptide alone) was “not induced”.

Turning to `COc1ccc2c(c[n+](C)c3c4cc5c(cc4ccc23)OCO5)c1OC` [chelerythrine, reference compound], in the assay with rat cardiac myocytes, the “effect on ΨεRACK-induced protection” value is recorded as “reversed”. Further, the “effect on ΨεRACK effect on contraction (negative chronotropy)” value in assay [2] is given as “inhibited”.

As to `CCCCCCCCCCCCCC(=O)O[C@@H]1[C@@H](C)[C@@]2(O)[C@@H](C=C(CO)C[C@]3(O)C(=O)C(C)=C[C@@H]23)[C@@H]2C(C)(C)[C@]12OC(C)=O` [PMA, phorbol 12-myristate 13-acetate, reference compound], the “decrease in contraction rate induced by 10 nM PMA” value in assay [1] was determined as 47±3%. The “decrease from the basal contraction rate” value in assay [2] (PMA alone) was determined as 11±4%.

As to “EAVSLKPT (listed as Homo sapiens) [εV1-2, reference compound]”, in the assay with rat cardiac myocytes, the “effect on ΨεRACK-induced protection” value is “reversed”. For the same molecule, in assay [2], the “effect on ΨεRACK effect on contraction (negative chronotropy)” value is given as “abolished”.

The values above are taken from patent US7994133B2, “Isozyme-specific antagonists of protein kinase C” (The Board of Trustees of the Leland Stanford Junior …, priority 2003, dated 2011).
